Results as given in PMC4306533, “Distinct Features of Cap Binding by eIF4E1b Proteins” (Journal of Molecular Biology, 2015).
Read-outs that look alike come from different tables or passages of the source.

Columns and labels:
XeIF4E1a [1] = target: T1, XeIF4E1a (Xenopus laevis, UniProt P48597); experiment: time-synchronized fluorescence titration of cap analogue binding; settings: for Kas + glycerol XeIF4E1a / Kas − glycerol XeIF4E1a: equilibrium association constant; for Kas − glycerol XeIF4E1a: buffer without glycerol
T1 construct: made in house; host or cells: E. coli Rosetta2(DE3)
T1 sequence (P48597 whole entry): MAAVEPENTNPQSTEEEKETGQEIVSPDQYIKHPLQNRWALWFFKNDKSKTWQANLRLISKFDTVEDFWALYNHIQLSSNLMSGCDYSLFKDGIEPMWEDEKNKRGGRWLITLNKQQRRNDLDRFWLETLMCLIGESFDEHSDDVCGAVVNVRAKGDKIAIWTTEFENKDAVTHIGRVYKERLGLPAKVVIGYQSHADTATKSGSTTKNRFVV
Description: (§1) The time-synchronized fluorescence titration method, widely used to determine the affinity constants of cap–eIF4E complexes [[20,22–26]], measures the quenching of the intrinsic fluorescence of tryptophan residues due to cap binding (Fig. S2). Knowledge of the equilibrium association constant Kas enables the calculation of the free-energy changes involved in the interaction between eIF4E and ligand, according to the standard equation ΔG° = − RTlnKas.
(§2) For human eIF4E1a and eIF4E1b and also for Xenopus eIF4E1a and its mutated forms, measurements were carried out using 0.1 μM protein in 50 mM Hepes/KOH (pH 7.2), 134.5 mM KCl, 0.5 mM EDTA and 1 mM DTT. For Xenopus eIF4E1b(ΔN27), the concentration was 0.2 μM and glycerol was added to the buffer to 10% (v/v) final concentration. […] Fluorescence of measured samples was excited at 280 nm (2.5 nm bandwidth) and detected at 337 nm or 330 nm (4 nm bandwidth), thus reducing the signal originated from the free cap analogues. Measurements were carried out on a LS-55 spectrofluorometer (Perkin Elmer Co.) using freshly prepared proteins, and the fluorescence intensities were corrected for sample dilution and the inner filter effect.
(§3) Equilibrium association constants (Kas) were determined by fitting the theoretical dependence of fluorescence intensity on the total concentration of the cap analogue to the experimental data points, according to the equation described previously (see Ref. [22] and Fig. S2c).
(§4) The final Kas was calculated as a weighted average of 2–6 independent titrations with the weights taken as the reciprocal of the numerical standard deviation squared. Numerical, nonlinear least-squares regression analysis was performed using Origin 6.0 (Microcal Software Inc.). Obtained association constants were used to determine the Gibbs free energy according to the standard equation ΔG° = − RTlnKas.

XeIF4E1a [2] = experiment: as above; set-up: species or system Xenopus laevis; settings: without glycerol
Description: as §1, §2, §3, §4

heIF4E1b [3] = target: T2, heIF4E1b (Homo sapiens, UniProt A6NMX2); experiment: as above; settings: equilibrium association constant; buffer without glycerol
T2 construct: made in house; host or cells: E. coli Rosetta2(DE3)
T2 sequence (A6NMX2 1-242): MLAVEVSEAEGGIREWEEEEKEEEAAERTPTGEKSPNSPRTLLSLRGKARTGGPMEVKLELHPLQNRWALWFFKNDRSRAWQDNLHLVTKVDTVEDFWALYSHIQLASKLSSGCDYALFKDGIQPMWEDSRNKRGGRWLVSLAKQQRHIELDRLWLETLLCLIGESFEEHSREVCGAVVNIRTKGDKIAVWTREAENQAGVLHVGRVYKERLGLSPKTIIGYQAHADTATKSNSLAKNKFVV
Description: as §1, §2, §3, §4

heIF4E1b [4] = experiment: as above; set-up: species or system human; settings: for Ratio Kas (h4E1a) to Kas (h4E1b): without glycerol
Description: as §1, §2, §3, §4

heIF4E1a [5] = target: T3, heIF4E1a (Homo sapiens, UniProt P06730); set-up: method as in PMID 17369309; settings: equilibrium association constant; buffer without glycerol; footnote b; cited from earlier work
T3 construct: made in house; host or cells: E. coli Rosetta2(DE3)
T3 sequence (P06730 whole entry): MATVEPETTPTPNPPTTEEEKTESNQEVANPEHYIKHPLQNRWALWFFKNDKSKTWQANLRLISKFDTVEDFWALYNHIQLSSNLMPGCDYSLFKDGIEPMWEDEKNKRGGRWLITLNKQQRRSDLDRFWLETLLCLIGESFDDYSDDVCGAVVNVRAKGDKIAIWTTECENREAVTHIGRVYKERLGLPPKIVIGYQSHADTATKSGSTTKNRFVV

XeIF4E1bΔN27 = experiment: time-synchronized fluorescence titration of cap analogue binding; set-up: species or system Xenopus laevis; settings: 10% glycerol; for Kas + glycerol XeIF4E1bΔN27: equilibrium association constant
Description: as §1, §2, §3, §4

X4E1a1 (E101S) = target: T4, X4E1a1 (E101S) (Xenopus laevis, UniProt P48597, E101S); experiment: fluorescence titration, XeIF4E1a mutant; format: binding; settings: mutant (E101S) of XeIF4E1a
T4 construct: made in house; host or cells: E. coli Rosetta2(DE3)
T4 sequence (P48597 whole entry E101S): as the sequence (P48597 whole entry) above, with E101S counted along it
Description: (§5) We tested the effect on cap-binding activity of these positions in the fluorescence assay with six mutated recombinant versions of Xenopus eIF4E1a (Fig. S4). The amino acids were introduced in XeIF4E1a sequentially in the order: E101S/K102R/S195A/M82S/T206L/T207S (numbering of the XeIF4E1a sequence is shifted backward by 4 amino acids relative to XeIF4E1b). […] The biggest contribution to the weaker cap binding of XeIF4E1a, in each case about 20%, resulted from changing Glu101 to Ser and Thr206 to Leu coupled with Thr207 to Ser, with the remaining mutations having only minor effects. […] Glu101 is a solvent-accessible amino acid and is proximal to Trp98 in the S3-S4 loop. […] Attenuation of the cap-binding affinity of XeIF4E1a resulting from mutating Thr206 and Thr207 is consistent with our results mentioned above showing significant influence of C-terminal loop residues on binding phosphate and the second nucleotide.
(§6) For human eIF4E1a and eIF4E1b and also for Xenopus eIF4E1a and its mutated forms, measurements were carried out using 0.1 μM protein in 50 mM Hepes/KOH (pH 7.2), 134.5 mM KCl, 0.5 mM EDTA and 1 mM DTT. For Xenopus eIF4E1b(ΔN27), the concentration was 0.2 μM and glycerol was added to the buffer to 10% (v/v) final concentration. […] The gradually increasing concentration of cap analogue quenches protein fluorescence without shifting the spectrum maximum, while at high concentrations, the fluorescence signal of free cap analogue dominates over the fluorescence from other solution components including free eIF4E and eIF4E in complex with cap (Fig. S2a). Fluorescence of measured samples was excited at 280 nm (2.5 nm bandwidth) and detected at 337 nm or 330 nm (4 nm bandwidth), thus reducing the signal originated from the free cap analogues. Measurements were carried out on a LS-55 spectrofluorometer (Perkin Elmer Co.) using freshly prepared proteins, and the fluorescence intensities were corrected for sample dilution and the inner filter effect.
(§7) Equilibrium association constants (Kas) were determined by fitting the theoretical dependence of fluorescence intensity on the total concentration of the cap analogue to the experimental data points, according to the equation described previously (see Ref. [22] and Fig. S2c). […] Along with Kas and the concentration of the active protein [P0^act], other parameters such as fL and ∆f = fPact − fPL are also gained from the fit, where fL represents the fluorescence efficiency of free cap analogue and ∆f represents the difference between the fluorescence efficiencies of the apo-protein and the complex (Fig. S2c).
as §4

X4E1a1’ (K102R) = target: T5, X4E1a1’ (K102R) (Xenopus laevis, UniProt P48597, K102R); experiment: fluorescence titration, XeIF4E1a mutant; format: binding; settings: mutant (K102R) of XeIF4E1a
T5 construct: made in house; host or cells: E. coli Rosetta2(DE3)
T5 sequence (P48597 whole entry K102R): as the sequence (P48597 whole entry) above, with K102R counted along it
Description: as §5, §6, §7, §4

X4E1a2 (E101S/K102R) = target: T6, X4E1a2 (E101S/K102R) (Xenopus laevis, UniProt P48597, E101S/K102R); experiment: fluorescence titration, XeIF4E1a mutant; format: binding; settings: mutant (E101S/K102R) of XeIF4E1a
T6 construct: made in house; host or cells: E. coli Rosetta2(DE3)
T6 sequence (P48597 whole entry E101S/K102R): as the sequence (P48597 whole entry) above, with E101S, K102R counted along it
Description: as §5, §6, §7, §4

[6] = target: T7, X4E1a3 (E101S/K102R/S195A) (Xenopus laevis, UniProt P48597, E101S/K102R/S195A); experiment: fluorescence titration, XeIF4E1a mutant; format: binding; settings: mutant (E101S/K102R/S195A) of XeIF4E1a
T7 construct: made in house; host or cells: E. coli Rosetta2(DE3)
T7 sequence (P48597 whole entry E101S/K102R/S195A): as the sequence (P48597 whole entry) above, with E101S, K102R, S195A counted along it
Description: as §5, §6, §7, §4

[7] = target: T8, X4E1a4 (E101S/K102R/S195A/M82S) (Xenopus laevis, UniProt P48597, E101S/K102R/M82S/S195A); experiment: fluorescence titration, XeIF4E1a mutant; format: binding; settings: mutant (E101S/K102R/S195A/M82S) of XeIF4E1a
T8 construct: made in house; host or cells: E. coli Rosetta2(DE3)
T8 sequence (P48597 whole entry M82S/E101S/K102R/S195A): as the sequence (P48597 whole entry) above, with M82S, E101S, K102R, S195A counted along it
Description: as §5, §6, §7, §4

[8] = target: T9, X4E1a6 (E101S/K102R/S195A/M82S/T206L/T207S) (Xenopus laevis, UniProt P48597, E101S/K102R/M82S/S195A/T206L/T207S); experiment: fluorescence titration, XeIF4E1a mutant; format: binding; settings: for Kas X4E1a6: mutant (E101S/K102R/S195A/M82S/T206L/T207S) of XeIF4E1a
T9 construct: made in house; host or cells: E. coli Rosetta2(DE3)
T9 sequence (P48597 whole entry M82S/E101S/K102R/S195A/T206L/T207S): as the sequence (P48597 whole entry) above, with M82S, E101S, K102R, S195A, T206L, T207S counted along it
Description: as §5, §6, §7, §4

in vitro translation = system: in vitro translation; set-up: method as in PMID 10387101; settings: Cai et al.; read-out: IC50 (inhibitory potency); cited from earlier work
heIF4E1a [9] = target: T3, heIF4E1a; experiment: time-synchronized fluorescence titration of cap analogue binding; settings: equilibrium association constant; buffer without glycerol
Description: as §1, §2, §3, §4

Row | Compound | Kas + glycerol XeIF4E1a (XeIF4E1a [1]; 10% glycerol) [μM^− 1] | Kas − glycerol XeIF4E1a (XeIF4E1a [1]) [μM^− 1] | Ratio Kas (h4E1a) to Kas (X4E1a) (XeIF4E1a [2]) | Kas − glycerol heIF4E1b (heIF4E1b [3]) [μM^− 1] | fold higher affinity of human eIF4E1b than eIF4E1a (heIF4E1b [4]; human proteins) | Ratio Kas (h4E1a) to Kas (h4E1b) (heIF4E1b [4]) | Kas − glycerol heIF4E1a (heIF4E1a [5]) | ΔΔG^o + glycerol XeIF4E1a (XeIF4E1a [1]; change relative to m^7Gp3G, 10% glycerol) [kcal/mol] | Ratio Kas (X4E1a) to Kas (X4E1bΔN27) (XeIF4E1bΔN27) | Kas + glycerol XeIF4E1bΔN27 (XeIF4E1bΔN27) [μM^− 1] | Kas X4E1a1 (X4E1a1 (E101S)) [µM⁻¹] | Kas X4E1a1’ (X4E1a1’ (K102R)) [µM⁻¹] | Kas X4E1a2 (X4E1a2 (E101S/K102R)) [µM⁻¹] | Kas X4E1a3 [6] [µM⁻¹] | Kas X4E1a4 [7] [µM⁻¹] | Kas + glycerol X4E1a6 ([8]; 10% glycerol, Fig. 5d) [µM⁻¹] | Kas X4E1a6 [8] [µM⁻¹] | IC50 (in vitro translation) [µM] | Kas − glycerol heIF4E1a (heIF4E1a [9]) [μM^− 1]
1 | Nc1nc2c(ncn2[C@@H]2O[C@H](COP(=O)(O)OP(=O)(O)OP(=O)(O)O)[C@@H](O)[C@H]2O)c(=O)[nH]1 [GTP, reference compound] | 0.055 ± 0.021 | 0.031 ± 0.006 | 0.87 | 0.159 ± 0.040 | approximately 5 fold | 0.17 | 0.027 ± 0.001 ^b μM^− 1 |  |  |  |  |  |  |  |  |  |  |  | 
2 | COC1C(O)C(COP(=O)(O)OP(=O)(O)OP(=O)(O)OCC2OC(n3cnc4c(=O)[nH]c(N)nc43)C(O)C2O)OC1n1c[n+](C)c2c(=O)[nH]c(N)nc21 (stereo not drawn) [m^7,2′-OGpppG] | 1.96 ± 0.24 |  |  | 4.63 ± 0.12 |  | 1.32 | 6.13 ± 0.34 ^b μM^− 1 | 0.091 ± 0.074 |  |  |  |  |  |  |  |  |  |  | 
3 | Cn1c[n+]([C@@H]2O[C@H](COP(=O)(O)OP(=O)([O-])O)[C@@H](O)[C@H]2O)c2nc(N)[nH]c(=O)c21 [m^7GDP] | 5.97 ± 0.37 | 11.42 ± 0.50 | 1.56 | 7.64 ± 0.71 |  | 2.32 | 17.76 ± 0.34 ^b μM^− 1 |  | 2.45 | 2.43 ± 0.15 | 10.1 ± 1.2 | 11.09 ± 0.21 | 8.80 ± 0.16 | 8.53 ± 0.36 | 7.68 ± 0.40 | 3.68 ± 0.10 | 6.82 ± 0.17 | 7.5 | 
4 | Cn1c[n+]([C@@H]2O[C@H](COP(=O)(O)OP(=O)(O)OP(=O)(O)OP(=O)(O)O)[C@@H](O)[C@H]2O)c2nc(N)[nH]c(=O)c21 [m^7Gp4] | 151.1 ± 8.6 | 268 ± 10 | 1.57 | 89.6 ± 4.0 |  | 4.68 |  |  | 3.51 | 43.0 ± 2.0 | 218 ± 39 | 232.5 ± 8.3 | 202.5 ± 6.7 | 170 ± 24 | 206 ± 12 |  | 143 ± 8 |  | 419 ± 23
